Measurements as given in ChEMBL document CHEMBL1201862, “PubChem BioAssay data set” (2004).
Active and inactive are the calls of the source.

Experiments:
[1] = target: T1, High affinity choline transporter 1 (Homo sapiens, UniProt Q9GZV3); test: human choline transporter blockers, potency – cell-based, 5-point CRC, membrane potential dye, dose response (AID 504840); format: functional
T1 sequence (Q9GZV3 whole entry): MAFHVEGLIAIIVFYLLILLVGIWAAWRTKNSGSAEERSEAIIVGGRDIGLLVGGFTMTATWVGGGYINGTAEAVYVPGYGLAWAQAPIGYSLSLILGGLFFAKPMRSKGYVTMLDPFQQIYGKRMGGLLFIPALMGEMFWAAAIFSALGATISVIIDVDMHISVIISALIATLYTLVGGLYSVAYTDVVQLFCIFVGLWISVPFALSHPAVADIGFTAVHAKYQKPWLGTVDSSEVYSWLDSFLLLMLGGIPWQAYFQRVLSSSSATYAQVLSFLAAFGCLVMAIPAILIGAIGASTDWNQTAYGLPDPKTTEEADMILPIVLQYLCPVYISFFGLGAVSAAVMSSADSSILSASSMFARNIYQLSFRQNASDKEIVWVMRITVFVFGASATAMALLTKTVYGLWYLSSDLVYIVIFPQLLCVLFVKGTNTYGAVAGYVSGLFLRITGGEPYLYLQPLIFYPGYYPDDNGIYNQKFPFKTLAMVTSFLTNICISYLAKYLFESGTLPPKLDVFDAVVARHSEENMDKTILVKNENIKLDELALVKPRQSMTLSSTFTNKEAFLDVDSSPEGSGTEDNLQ

[2] = target: T2, Corticotropin-releasing factor receptor 2/Corticotropin-releasing factor-binding protein (Homo sapiens, UniProt P24387+Q13324); test: Dose Response confirmation of uHTS hits for small molecule antagonists of the CRF-binding protein and CRF-R2 receptor complex.; format: functional; conditions: read-out: IC50_Mean
T2 sequence (Q13324 whole entry): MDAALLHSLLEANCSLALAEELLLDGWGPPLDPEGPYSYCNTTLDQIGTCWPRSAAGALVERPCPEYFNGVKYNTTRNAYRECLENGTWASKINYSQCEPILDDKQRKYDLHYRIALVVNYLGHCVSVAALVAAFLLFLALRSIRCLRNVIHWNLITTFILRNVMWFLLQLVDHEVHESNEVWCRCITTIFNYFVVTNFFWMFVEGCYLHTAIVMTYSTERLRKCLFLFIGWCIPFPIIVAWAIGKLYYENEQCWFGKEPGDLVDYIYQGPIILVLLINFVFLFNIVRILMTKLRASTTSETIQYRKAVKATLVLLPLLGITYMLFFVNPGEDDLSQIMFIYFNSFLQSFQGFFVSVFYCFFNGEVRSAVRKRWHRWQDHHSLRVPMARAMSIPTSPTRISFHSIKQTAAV
T2 sequence (P24387 whole entry): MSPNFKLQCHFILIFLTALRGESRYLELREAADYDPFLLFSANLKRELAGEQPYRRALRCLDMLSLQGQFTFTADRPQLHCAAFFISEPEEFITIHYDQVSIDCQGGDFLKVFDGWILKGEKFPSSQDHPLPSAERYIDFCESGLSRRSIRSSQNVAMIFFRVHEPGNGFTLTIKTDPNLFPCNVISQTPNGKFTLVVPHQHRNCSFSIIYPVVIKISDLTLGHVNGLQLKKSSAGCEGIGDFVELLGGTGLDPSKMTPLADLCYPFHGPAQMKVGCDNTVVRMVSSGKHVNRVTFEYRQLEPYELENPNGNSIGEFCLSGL

[3] = target: T2, Corticotropin-releasing factor receptor 2/Corticotropin-releasing factor-binding protein; test: activators of CRF receptor 2 with binding protein – uHTS hits, confirmation (AID 602473); format: functional; conditions: read-out: EC50_Mean
[4] = blockers of CRF-binding protein–CRF-R2 complex – cell-based, uHTS hits, 384-well, dose response (AID 651639); format: functional, Homo sapiens; conditions: read-out: IC50_Mean
Vero [5] = test: cells; format: functional, cell-based; conditions: Chlorocebus sabaeus
Vero [6] = test: cells; format: functional; conditions: Chlorocebus sabaeus
Paired box protein Pax-8 = Paired box protein Pax-8 (Homo sapiens, UniProt Q06710); test: PAX8 transcriptional activity inhibition in RMG-I – RMG-I cells, luciferase, cherry-pick, dose response (AID 687027); format: functional, cell-based;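 further: luciferase reporter driven by Pax8 target thyroperoxidase promoter measured by SteadyGlo luminescence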
Genome polyprotein = Genome polyprotein (dengue virus type 2, UniProt P29990); test: flavivirus cap methylation enzyme inhibition – biochemical, confirmation dose response, primary screen (AID 588689); format: functional
[7] = NIH3T3 cell viability loss – ATP luminescence, mouse fibroblasts, counter-screen, dose response (AID 2010); format: functional, cell-based;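 further: cells exposed to compound for about 90 hours before reading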
[8] = reduction of Shn3 3'UTR-driven luciferase in osteoblasts – cell-based, Clone20 osteoblasts, firefly luciferase, cherry-picked, dose response (AID 624132); format: functional;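 further: firefly luciferase luminescence from reporter carrying the Shn3 3'UTR in osteoblasts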
[9] = loss of viability in HepG2 cells – cell-based, CellTiter-Glo, cherry-picked, cytotoxicity control for Shn3 inhibitor project, dose response (AID 624134); format: functional
[10] = Trypanosoma cruzi growth suppression in host cells – NIH3T3 host cells, beta-gal luminescence, confirmation (AID 2044); format: functional, cell-based;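 further: intracellular parasites grown in NIH/3T3 mouse fibroblasts as host cells; luminescent beta-galactosidase reporter signal from transgenic T. cruzi replicating inside host cells; inhibitors lower the luminescence signal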
[11] = non-specific 3'UTR reporter inhibition in Clone20-Shn3RL – cell-based, Renilla luciferase, cherry-picked, counter-screen for Shn3 inhibitor project, dose response (AID 624133); format: functional
HEK293 = test: EBV LMP1 TES2 canonical NF-kB signalling blockers – cell-based, HEK293, luciferase, cherry-pick, dose response (AID 588343); format: functional; conditions: Homo sapiens
[12] = target: T3, Microphthalmia-associated transcription factor (Homo sapiens, UniProt O75030); test: reducers of TRPM1 reporter luminescence, concentration series – cell-based, SK-MEL-5, cherry-picked, set 3, MITF inhibitor project, dose response (AID 493073); format: functional;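 further: SK-MEL-5 melanoma cells with luciferase driven by the MITF target TRPM1 promoter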
T3 sequence (O75030 whole entry): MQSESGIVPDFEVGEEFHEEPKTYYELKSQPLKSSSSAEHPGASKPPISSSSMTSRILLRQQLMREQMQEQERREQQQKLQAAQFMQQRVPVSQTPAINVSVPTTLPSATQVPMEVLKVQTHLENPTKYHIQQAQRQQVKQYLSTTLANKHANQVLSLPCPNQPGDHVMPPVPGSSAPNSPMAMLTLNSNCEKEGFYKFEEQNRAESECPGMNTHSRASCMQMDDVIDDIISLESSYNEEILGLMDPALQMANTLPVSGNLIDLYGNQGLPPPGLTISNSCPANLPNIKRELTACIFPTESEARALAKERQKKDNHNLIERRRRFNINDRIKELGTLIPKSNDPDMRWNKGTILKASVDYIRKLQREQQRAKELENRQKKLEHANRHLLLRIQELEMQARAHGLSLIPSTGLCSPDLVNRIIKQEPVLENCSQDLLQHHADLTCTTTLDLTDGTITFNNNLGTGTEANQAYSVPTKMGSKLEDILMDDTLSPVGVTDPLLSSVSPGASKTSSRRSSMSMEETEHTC

[13] = fluconazole-exposed Candida albicans growth modulators – fluorescence, retest, confirmation (AID 2467); format: functional, cell-based
[14] = NIH-3T3 fibroblast cytotoxicity, dose response, cytotoxicity control, cell-based, fluorescence, Alamar Blue, secondary assay (AID 2327); format: functional;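 further: NIH-3T3 mouse fibroblasts cultured with fluconazole at 8 µg/mL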
[15] = target: T4, DNA repair protein RAD52 homolog (Homo sapiens, UniProt P43351); format: functional, biochemical
T4 sequence (P43351 whole entry): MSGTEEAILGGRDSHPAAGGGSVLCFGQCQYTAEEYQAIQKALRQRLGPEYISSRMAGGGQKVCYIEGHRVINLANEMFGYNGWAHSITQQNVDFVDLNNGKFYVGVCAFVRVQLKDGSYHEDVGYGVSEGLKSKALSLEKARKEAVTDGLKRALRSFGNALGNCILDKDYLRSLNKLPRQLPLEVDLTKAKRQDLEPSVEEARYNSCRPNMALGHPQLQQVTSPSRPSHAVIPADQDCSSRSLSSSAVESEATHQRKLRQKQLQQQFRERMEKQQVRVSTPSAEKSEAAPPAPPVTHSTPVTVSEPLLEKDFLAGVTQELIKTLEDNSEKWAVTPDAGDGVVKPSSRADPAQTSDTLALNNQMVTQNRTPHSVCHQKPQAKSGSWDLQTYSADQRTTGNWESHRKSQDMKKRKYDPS

[16] = tested on: Streptococcus sp. 'group A'; test: Streptococcus pyogenes SK(-)GAS viability under kanamycin – luminescence, BacTiterGlo, confirmation, counter-screen for streptokinase expression inhibitor project, dose response (AID 1900); format: functional, organism-based
Streptokinase A = target: T5, Streptokinase A (Streptococcus pyogenes serotype M1, UniProt P10520); test: viability-normalized secreted streptokinase activity reduction – plasminogen activation absorbance, OD405, dose response (AID 1914); format: functional, Streptococcus pyogenes M1 GAS;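 further: secreted streptokinase activity via plasminogen activation per viability signal from cell pellet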
T5 sequence (P10520 whole entry): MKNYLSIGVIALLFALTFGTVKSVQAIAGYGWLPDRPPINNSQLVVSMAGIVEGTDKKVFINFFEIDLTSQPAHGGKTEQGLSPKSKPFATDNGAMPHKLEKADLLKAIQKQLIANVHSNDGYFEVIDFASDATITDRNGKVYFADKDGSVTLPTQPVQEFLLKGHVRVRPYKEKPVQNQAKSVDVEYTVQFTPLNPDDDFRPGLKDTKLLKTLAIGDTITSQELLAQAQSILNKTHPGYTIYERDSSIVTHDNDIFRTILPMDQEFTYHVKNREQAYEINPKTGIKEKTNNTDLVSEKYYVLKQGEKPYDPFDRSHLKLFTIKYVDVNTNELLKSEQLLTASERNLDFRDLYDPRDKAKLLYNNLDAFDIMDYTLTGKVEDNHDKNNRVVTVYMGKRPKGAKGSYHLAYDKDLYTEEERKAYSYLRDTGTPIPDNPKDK

Streptococcus = test: GAS UMAA2166 growth inhibition – luminescence, BacTiterGlo, counter-screen for streptokinase expression inhibitor project, dose response (AID 1915); format: functional, organism-based;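 further: potency for reduction of bacterial viability or growth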
[17] = target: T6, Short transient receptor potential channel 4 (Mus musculus, UniProt Q9QUQ5); test: block of DAMGO-driven TRPC4 calcium entry – cell-based, HEK293 TRPC4/mu-opioid, Fluo-4 calcium, dose response (AID 434942); format: functional;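 further: potency of inhibitors blocking the TRPC4 calcium response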
T6 sequence (Q9QUQ5 whole entry): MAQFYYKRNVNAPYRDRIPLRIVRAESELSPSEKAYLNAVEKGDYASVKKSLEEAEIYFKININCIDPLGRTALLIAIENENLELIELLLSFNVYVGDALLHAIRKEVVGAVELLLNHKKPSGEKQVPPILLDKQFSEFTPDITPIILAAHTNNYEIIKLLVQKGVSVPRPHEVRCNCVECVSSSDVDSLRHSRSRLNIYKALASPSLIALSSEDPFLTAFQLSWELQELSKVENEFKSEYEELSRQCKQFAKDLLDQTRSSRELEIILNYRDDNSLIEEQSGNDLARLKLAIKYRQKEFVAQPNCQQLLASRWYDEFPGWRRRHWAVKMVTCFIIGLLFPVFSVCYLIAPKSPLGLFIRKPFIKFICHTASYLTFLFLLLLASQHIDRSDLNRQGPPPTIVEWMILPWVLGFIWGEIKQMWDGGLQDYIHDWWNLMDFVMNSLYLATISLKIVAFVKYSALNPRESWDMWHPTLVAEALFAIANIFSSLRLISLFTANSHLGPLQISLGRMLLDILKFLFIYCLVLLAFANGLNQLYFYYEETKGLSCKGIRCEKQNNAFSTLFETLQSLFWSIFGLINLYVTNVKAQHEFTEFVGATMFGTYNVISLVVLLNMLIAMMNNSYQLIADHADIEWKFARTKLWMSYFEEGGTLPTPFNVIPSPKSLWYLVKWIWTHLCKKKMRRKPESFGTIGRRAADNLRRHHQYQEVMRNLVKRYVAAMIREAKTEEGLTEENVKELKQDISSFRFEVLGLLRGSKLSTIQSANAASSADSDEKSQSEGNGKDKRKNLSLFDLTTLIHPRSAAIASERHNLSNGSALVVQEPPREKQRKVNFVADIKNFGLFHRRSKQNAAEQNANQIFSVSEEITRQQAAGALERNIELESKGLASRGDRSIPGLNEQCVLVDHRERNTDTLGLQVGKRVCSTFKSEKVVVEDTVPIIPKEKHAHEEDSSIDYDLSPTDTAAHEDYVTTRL

Chain of Paired box protein Pax-8 (Q06710 whole entry): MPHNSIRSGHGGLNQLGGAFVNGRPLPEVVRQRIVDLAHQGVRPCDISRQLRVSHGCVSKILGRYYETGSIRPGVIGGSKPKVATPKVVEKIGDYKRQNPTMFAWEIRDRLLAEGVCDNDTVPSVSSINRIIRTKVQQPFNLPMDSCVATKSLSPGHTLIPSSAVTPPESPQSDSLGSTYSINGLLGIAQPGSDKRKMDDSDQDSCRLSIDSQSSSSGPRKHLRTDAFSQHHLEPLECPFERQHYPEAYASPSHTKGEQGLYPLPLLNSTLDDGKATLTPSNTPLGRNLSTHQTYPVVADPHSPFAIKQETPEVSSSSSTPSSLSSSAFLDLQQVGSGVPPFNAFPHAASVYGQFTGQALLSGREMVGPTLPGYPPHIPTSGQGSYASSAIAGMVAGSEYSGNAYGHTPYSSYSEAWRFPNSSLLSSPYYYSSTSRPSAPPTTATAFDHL
Chain of Genome polyprotein (P29990 2492-3391 limits assumed): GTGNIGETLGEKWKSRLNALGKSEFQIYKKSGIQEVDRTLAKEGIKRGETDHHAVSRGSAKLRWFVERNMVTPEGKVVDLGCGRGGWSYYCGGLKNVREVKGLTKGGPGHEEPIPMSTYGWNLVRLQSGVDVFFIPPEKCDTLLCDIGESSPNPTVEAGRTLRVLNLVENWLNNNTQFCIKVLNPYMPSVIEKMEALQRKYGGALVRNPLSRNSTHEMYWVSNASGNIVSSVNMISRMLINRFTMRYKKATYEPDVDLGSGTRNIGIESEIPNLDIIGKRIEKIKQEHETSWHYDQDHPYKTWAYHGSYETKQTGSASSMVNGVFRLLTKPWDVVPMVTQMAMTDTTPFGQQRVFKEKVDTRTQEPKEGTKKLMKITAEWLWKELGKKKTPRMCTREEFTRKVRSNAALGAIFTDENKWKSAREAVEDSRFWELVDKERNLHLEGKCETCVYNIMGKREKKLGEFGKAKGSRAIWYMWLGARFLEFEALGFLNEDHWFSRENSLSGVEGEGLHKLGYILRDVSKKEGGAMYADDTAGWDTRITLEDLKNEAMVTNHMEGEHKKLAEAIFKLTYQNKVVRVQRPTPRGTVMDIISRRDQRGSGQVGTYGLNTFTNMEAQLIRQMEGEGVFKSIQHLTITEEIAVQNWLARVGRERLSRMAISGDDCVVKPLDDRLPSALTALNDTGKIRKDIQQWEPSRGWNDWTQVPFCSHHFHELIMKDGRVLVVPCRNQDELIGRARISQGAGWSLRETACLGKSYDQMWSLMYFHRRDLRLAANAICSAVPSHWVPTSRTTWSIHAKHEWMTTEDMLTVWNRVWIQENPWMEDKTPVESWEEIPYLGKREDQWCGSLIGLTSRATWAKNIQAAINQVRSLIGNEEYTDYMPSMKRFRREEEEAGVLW

## Cc1nn(C(C)C(=O)NC(C)CCc2ccccc2)c(=O)c2cc3occc3n12 (stereo unspecified)
[1]
  IC50: 17.4 µM (active)

## CCCN1C(=O)c2ccccc2NC1c1ccc(OC)c(CSc2ccccn2)c1 (stereo unspecified)
[2]
  IC50: 46.2 µM (active)
[3]
  EC50: > 53 µM (inactive)
[4]
  IC50: > 20 µM (inactive)

## CC(=O)O[C@H]1C[C@H](O[C@H]2[C@@H](O)C[C@H](O[C@H]3[C@@H](O)C[C@H](O[C@H]4CC[C@@]5(C)[C@H](CC[C@@H]6[C@@H]5CC[C@]5(O)[C@@H](C7=CC(=O)OC7)CC[C@]65O)C4)O[C@@H]3C)O[C@@H]2C)O[C@H](C)[C@H]1O[C@@H]1O[C@H](CO)[C@@H](O)[C@H](O)[C@H]1O
Vero [5]
  IC50: < 0.05 µM (active)
Vero [6]
  CC50: 1.78 µM (active)
Paired box protein Pax-8
  AC50: 1.98 µM (active)

## Cc1ccccc1C(=O)c1cccn1CC(=O)NC(C)c1ccccc1 (stereo unspecified)
[1]
  IC50: 12.6 µM (active)

## COc1cccc(/C=C2\SC(=S)N(NS(=O)(=O)c3ccccc3)C2=O)c1OC
[1]
  IC50: 0.692 µM (active)
[2]
  IC50: 22.3 µM (active)
[3]
  EC50: > 53 µM (inactive)
Genome polyprotein
  IC50: 41.1 µM (active)

## CCCc1nc2ccc(Br)cc2c(=O)n1-c1ccc([N+](=O)[O-])c(C(F)(F)F)c1
[7]
  EC50: > 60 µM (not active)
[8]
  AC50: 15.7 µM (active)
[9]
  AC50: 7.4 µM (active)
[10]
  EC50: 2 µM (active)
[11]
  AC50: 11.7 µM (active)
HEK293
  AC50: 29.2 µM (active)

## CC(C)n1c(O)c(C2c3cc(Cl)ccc3Oc3[nH]c(=O)n(C(C)C)c(=O)c32)c(=O)[nH]c1=O (stereo unspecified)
[12]
  AC50: 5.39 µM (active)

## Cc1cc(C)cc(OC(C)C(=O)Nc2ccc(S(=O)(=O)Nc3cc(C)nc(C)n3)cc2)c1 (stereo unspecified)
[1]
  IC50: 13.2 µM (active)

## Brc1cccc(CSc2nnc(-c3ccncc3)o2)c1
[13]
  EC50: > 38 µM (not active)
[14]
  EC50: 41.1 µM (active)
HEK293
  AC50: 47 µM (active)

## Clc1ccc(-c2cc(C3CCNCC3)[nH]n2)c(Cl)c1
Vero [5]
  IC50: 24.8 µM (active)
Vero [6]
  CC50: > 25 µM (active)

## CCCCCCCCCCCCOC(=O)C[N+](C)(C)C
[15]
  AC50: 26.4 µM (active)
[16]
  EC50: 3.32 µM (active)
Streptokinase A
  EC50: 20.7 µM (active)
Streptococcus
  EC50: 10.6 µM (active)
[17]
  EC50: 2.99 µM (active)

## CC1(CCCc2ccc(N(CCCl)CCCl)cc2)NC(=O)NC1=O (stereo unspecified)
HEK293
  AC50: 4.51 µM (active)
